According to paper PMC12856317, “A reversible feedback mechanism regulating mitochondrial heme synthesis” (The Journal of Biological Chemistry, 2025):

Columns and labels:
Assay in all cases: Inhibitor competition, apoenzyme reactivation by PLP with hemin
Type in all cases: biochemical
[1] = target: T1, apoALAS2 Cys-mut (C70A/C555A/C558A) (Homo sapiens, UniProt P22557, C555A/C558A/C70A)
T1 construct: Site-directed mutagenesis was performed on the mature ALAS2 (residues 54–587) construct to generate truncations and cysteine mutants; His6-SUMO (N, cleaved yes); made in house; host or cells: Escherichia coli BL21-Codon Plus (DE3)-RIL
T1 sequence (P22557 54-587 C70A/C555A/C558A): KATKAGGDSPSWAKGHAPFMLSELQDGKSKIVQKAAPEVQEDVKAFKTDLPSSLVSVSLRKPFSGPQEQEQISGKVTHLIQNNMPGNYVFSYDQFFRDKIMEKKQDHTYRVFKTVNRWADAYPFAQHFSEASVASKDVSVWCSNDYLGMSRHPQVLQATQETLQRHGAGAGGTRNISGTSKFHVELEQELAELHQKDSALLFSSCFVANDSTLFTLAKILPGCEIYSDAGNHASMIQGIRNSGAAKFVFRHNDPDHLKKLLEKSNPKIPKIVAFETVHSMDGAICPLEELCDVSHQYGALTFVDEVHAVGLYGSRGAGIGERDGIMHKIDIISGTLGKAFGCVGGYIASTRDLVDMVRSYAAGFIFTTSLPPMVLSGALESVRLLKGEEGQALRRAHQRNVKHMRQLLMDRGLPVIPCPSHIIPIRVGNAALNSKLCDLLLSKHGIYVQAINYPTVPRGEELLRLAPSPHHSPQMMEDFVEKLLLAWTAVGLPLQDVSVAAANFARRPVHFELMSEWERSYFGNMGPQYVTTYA
Description: (§1) A discontinuous colorimetric activity assay adapted from Shoolingin-Jordan et al. and Bailey et al. was used to measure the enzyme activity ([48], [74]). The reaction was initiated by adding 100 nM purified enzyme to 50 mM potassium phosphate, pH 7.0, 10 mM MgCl2, 1 mM DTT, 100 mM glycine, and 300 μM succinyl-CoA (175 μl total). The reaction was incubated at 37 °C for 15 min and terminated with 100 μl of cold 10% trichloroacetic acid. The precipitated protein was removed by centrifugation for 5 min at 13,000g, and 240 μl of the supernatant was mixed with 240 μl of 1 M sodium acetate, pH 4.6. To derivatize ALA, 20 μl of acetylacetone was added to the mixture and boiled at 100 °C for 10 min. After the sample was cooled for 20 min, 100 μl aliquots were transferred into a clear 96-well plate in triplicate. An equal volume of Ehrlich’s reagent (p-Dimethylaminobenzaldehyde, DMAB) was added to each well, and the absorbance was monitored at 553 nm using a microplate reader (Thermo Fisher Scientific). The peak absorbance value was converted to molar ALA concentration using ε553 = 60,400 M^−1 cm^−1.
(§2) For inhibitor competition experiments, the apoenzymes were preincubated with hemin or PLP (0–100 μM) for 15 min at 25 °C in the dark before initiating the reaction. Next, either PLP or hemin (0–100 μM) was titrated into the reactions to measure enzyme activation after hemin inhibition or enzyme inhibition of the PLP-treated apoenzyme, respectively. For succinyl-CoA:hemin competition analyses, the WT holoenzyme was mixed with hemin (0, 25, 50, and 100 μM), followed by the addition of increasing succinyl-CoA concentrations (0, 25, 50, 100, 250, and 500 μM). All experiments were performed with a minimum of three biological replicates, each with three technical replicates. Data were fit using nonlinear regression to generate an agonist dose-response curve (EC50) or an inhibitor dose-response curve (IC50). Lineweaver-Burk analysis was performed using the resulting kinetic parameters (Vmax and KM) in GraphPad Prism 10.

[2] = target: T2, apoALAS2 ΔC (residues 54–547) (Homo sapiens, UniProt P22557)
T2 construct: a truncation without the C-terminal CXXC motif (ΔC, residues 54–547); His6-SUMO (N, cleaved yes); made in house; host or cells: Escherichia coli BL21-Codon Plus (DE3)-RIL
T2 sequence (P22557 54-547): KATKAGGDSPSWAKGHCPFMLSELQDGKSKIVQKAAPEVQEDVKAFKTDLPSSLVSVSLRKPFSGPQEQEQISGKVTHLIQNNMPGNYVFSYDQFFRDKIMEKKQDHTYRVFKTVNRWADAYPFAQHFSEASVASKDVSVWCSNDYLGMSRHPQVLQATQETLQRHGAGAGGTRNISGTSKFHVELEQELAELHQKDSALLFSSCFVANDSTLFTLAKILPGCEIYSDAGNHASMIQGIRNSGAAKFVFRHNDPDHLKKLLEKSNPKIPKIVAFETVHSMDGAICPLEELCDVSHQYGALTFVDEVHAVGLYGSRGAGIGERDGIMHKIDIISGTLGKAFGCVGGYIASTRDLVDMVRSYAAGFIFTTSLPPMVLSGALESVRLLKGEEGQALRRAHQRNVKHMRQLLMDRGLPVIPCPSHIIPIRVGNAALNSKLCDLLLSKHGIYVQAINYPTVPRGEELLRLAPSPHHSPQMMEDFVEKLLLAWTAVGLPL
Description: as §1, §2

[3] = target: T3, apoALAS2 ΔN (residues 75–587) (Homo sapiens, UniProt P22557)
T3 construct: a truncation without HRM3 (ΔN, residues 75–587); His6-SUMO (N, cleaved yes); made in house; host or cells: Escherichia coli BL21-Codon Plus (DE3)-RIL
T3 sequence (P22557 75-587): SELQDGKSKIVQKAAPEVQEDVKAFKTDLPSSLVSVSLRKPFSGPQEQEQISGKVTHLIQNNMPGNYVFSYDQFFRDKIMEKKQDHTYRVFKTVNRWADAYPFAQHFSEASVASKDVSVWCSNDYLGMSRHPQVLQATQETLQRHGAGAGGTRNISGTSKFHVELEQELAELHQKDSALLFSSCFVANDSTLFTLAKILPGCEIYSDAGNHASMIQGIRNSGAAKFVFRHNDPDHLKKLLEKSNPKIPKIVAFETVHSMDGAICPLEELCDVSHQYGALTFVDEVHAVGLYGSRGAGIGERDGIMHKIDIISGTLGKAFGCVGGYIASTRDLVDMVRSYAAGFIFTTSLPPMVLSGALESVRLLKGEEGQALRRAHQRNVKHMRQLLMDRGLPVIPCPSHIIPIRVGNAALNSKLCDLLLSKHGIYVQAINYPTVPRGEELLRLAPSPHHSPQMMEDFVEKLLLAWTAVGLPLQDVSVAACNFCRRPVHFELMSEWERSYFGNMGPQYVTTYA
Description: as §1, §2

| EC50 ([1]; Cys-mut apoALAS2, PLP titration in the presence of 50 μM hemin) [µM] | EC50 ([2]; ΔC apoALAS2, PLP titration in the presence of 50 μM hemin) [µM] | apoenzyme activity restored ([2]; ΔC apoenzyme preincubated with 50 μM heme, excess PLP) [%] | EC50 ([3]; ΔN apoALAS2, PLP titration in the presence of 25 μM hemin) [µM] | mode of inhibition ([1]; Cys-mut, multiple heme concentrations (Fig. S4)) | mode of inhibition ([2]; ΔC, multiple heme concentrations (Fig. S4)) | mode of inhibition ([3]; ΔN, multiple heme concentrations (Fig. S4)) | Compound |
| --- | --- | --- | --- | --- | --- | --- | --- |
| 10 ± 4 | 9 ± 1 | ~50 | 4 ± 2 | – | – | – | Cc1ncc(COP(=O)(O)O)c(C=O)c1O [PLP] |
| – | – | – | – | allosteric mixed inhibitor | allosteric mixed inhibitor | allosteric mixed inhibitor | ferric chloride heme [hemin] |
